Data reported in patent US5912259A, “Method for treating and preventing neurodegenerative disorders by administering a thiazolidinone” (Warner-Lambert Company, priority 1998, dated 1999).

How the values were obtained:
[1] = system: 5-lipoxygenase; details: described in U.S. Pat. No. 5,143,928; cited from earlier work
[2] = system: cyclooxygenase; details: described in U.S. Pat. No. 5,143,928; cited from earlier work
[3] = system: NMDA-induced injury
Experimental: Intrastriatal injections of NMDA (15 nmol/0.5 μL) were performed in male and female Sprague-Dawley rat pups (Charles River Laboratory, Portage, Mich.) on Postnatal Day (PND) 7. The animals were anesthetized with ether, and the calvarium was exposed by a midline incision through the skin. The rat pups were placed in a plaster of paris mold that was secured to a small animal stereotaxic instrument (Kopf Instruments). NMDA (Sigma) was dissolved in 0.1 M phosphate-buffered saline (PBS) adjusted to pH 7.4 with 1 N NaOH. Injections of NMDA ([…]) were placed in the middle of the right posterior corpus striatum (coordinates relative to Bregma; AP -2.0 mm, ML 2.5 mm, at a depth of 4.0 mm from the dura) with a 26-gauge Hamilton syringe. The syringe was left in place for 2 minutes following the injections to limit leakage. Temperature of the animals was kept constant after surgery in a thermostatically controlled environment (HovaBator chick incubator; BFG Corp., Savannah, Ga.) set at 35° C. to 36° C. for 1 hour after the last drug or vehicle injection. Drug solutions were prepared in PBS and injected intraperitoneally (0.05 mL volume) 15 minutes, and 2.25 hours after intrastriatal injection of NMDA. Control animals received equal volumes of PBS.
After surgery, all animals were returned to the mothers for 5 days, and decapitated on PND 12. The brains were removed, the cerebral hemispheres were separated, and wet weights of each hemisphere were determined individually. Differences of the hemispheric weights were compared for each animal using the formula: 100×(C-I/C)=percent damage, a value that indicates the severity of damage of the injected (I) cerebral hemisphere relative to that of the uninjected contralateral (C) hemisphere. Percent protection is used to indicate the relative protection of the neuroprotective compound compared to the control and was calculated as: 100×[1-(% damagetreated /% damagecontrol)]. Data were expressed as mean percent damage±S.E.M. in all groups. Independent t-tests were used for statistical comparisons.

[4] = system: canine leptomeningeal smooth muscle cells; experiment: Amyloid β-peptide-induced cytotoxicity in canine leptomeningeal smooth muscle cells; format: cell-based, dog
Description: Canine smooth muscle cells were isolated from freshly obtained old dog meninges. […] Old dogs have an angiopathy resembling the human condition. Smooth muscle cells are the site of cerebral vessel myopathy occurring in the Dutch form of Alzheimer's disease. The compromise of these cells ultimately leads to a cerebrovascular accident and the death of some humans.
Cells from the meninges were dissociated and kept in culture in 10% fetal calf serum and Dulbecco's minimal essential media with antibiotics for about 1 week on tissue culture plates before use in biochemical studies or transferal to uncoated microscope slides for morphological studies. These smooth muscle cells represent brain blood vessel cells and they can be passaged several times. For inducing cytotoxicity, the cells were treated, in serum-free media, with 10 to 20 μM of amyloid β-peptide that was 42 amino acids long. This peptide corresponds to the human β-peptide sequence. The peptide was dissolved in water immediately before use. This small amount of protein is believed to approximate the concentration of protein observed in postmortem samples in the brains of people who died with Alzheimer's dementia.
Percentages were determined by counting normal and apoptotic nuclei in three fields with five independent measures in a fluorescence microscope.

CC(C)(C)c1cc(C=C2SC(=N)NC2=O)cc(C(C)(C)C)c1O [5-[[3,5-bis-(1,1-dimethylethyl)-4-hydroxyphenyl]methylene]-2-imino-4-thiazolidinone]
inhibition of 5-lipoxygenase activity [1]: inhibits the activities of both cyclooxygenase and 5-lipoxygenase | inhibition of cyclooxygenase activity [2]: inhibits the activities of both cyclooxygenase and 5-lipoxygenase

CN[C@H](CC(=O)O)C(=O)O [NMDA, N-methyl-D-aspartate, reference compound]
reduction in wet weight of the ipsilateral cerebral hemisphere ([3]; NMDA 15 nmol/0.5 μL injected into posterior striatum, i.p. PBS, N=10): 20.6±1.8%

COc1ccc2c(c1)c(CC(=O)O)c(C)n2C(=O)c1ccc(Cl)cc1 [indomethacin, reference compound]
protection compared with the thiazolidinone ([3]; 2×30 mg/kg, versus thiazolidinone 2×30 mg/kg): comparable

human protein sequence: amyloid β-peptide that was 42 amino acids long; corresponds to the human β-peptide sequence [reference compound]
earliest statistically significant cytotoxicity ([4]; 10 to 20 μM amyloid β-peptide): 24 h | smooth muscle cells killed apoptotically ([4]; 10 to 20 μM, 1-week period, serum-free media, Hoechst 33258, 10080 min): 70% to 85
